We go through four compounds from US7538099B1, “Antiprogestin method and kit for reducing side effects associated with low dosage HRT, oral contraception and regulating menses” (Eastern Virginia Medical School, priority 1992, dated 2009).

Where two headings read alike, the source gives them in different places. A value given as a limit tells only on which side of the number the result lay.

The test system of data set [1] is ovulation (serum estradiol and progesterone). As to the kind of experiment: Example I Part II: weekly serum progesterone and estradiol (breakthrough ovulation, endogenous estrogen biosynthesis). As to conditions: continuous ultra low dose regimen plus intermittent RU 486; almost unvarying. The data set is classed as in vivo, Macaca mulatta. The text has this:
In Part II, 30 of these primates were randomly assigned to five treatment groups of six each: (1) the oral contraceptive medication employed in Part I was continued (21+7 day regimen) for 6 months; (2) continuous (no “pill-free” interval) daily estrogen-progestin medication, with combined single day oral administration of an antiprogestin (RU 486) on treatment days 30, 60, 90, 120, 150, and 180; (3) same as group 2, except that the progesterone antagonist was given only on days 60, 120, and 180; (4) same as group 2, except that RU 486 was given only on days 90 and 180; and (5) 180 days of continuous estrogen-progestin daily therapy, but without any antiprogestin treatment. Daily monitoring to detect vaginal blood, as in Part I above, was discontinued at 187 days. Femoral blood was collected once weekly throughout in order to identify potential breakthrough ovulation via progesterone elevations; serum values above 1.0 ng/ml were considered indicative of ovarian luteal function and possible ovulation. Likewise, these same specimens were analyzed for estradiol levels in order to monitor ongoing endogenous estrogen biosynthesis. Two monkeys, in groups 1 and 3, respectively, were dropped from the ongoing protocol, one due to a skin rash and the other because of a thumb infection requiring topical treatment. Neither incident is believed to be related to the hormonal treatments.

The subject of data set [2] is adult female rhesus monkeys. As to the kind of experiment: Example I Part II: daily vaginal swabs for bleeding, ultra low dose oral contraception with or without intermittent RU 486, 180 days. It counts as in vivo, Macaca mulatta. The text has this:
In Part II, 30 of these primates were randomly assigned to five treatment groups of six each: (1) the oral contraceptive medication employed in Part I was continued (21+7 day regimen) for 6 months; (2) continuous (no “pill-free” interval) daily estrogen-progestin medication, with combined single day oral administration of an antiprogestin (RU 486) on treatment days 30, 60, 90, 120, 150, and 180; (3) same as group 2, except that the progesterone antagonist was given only on days 60, 120, and 180; (4) same as group 2, except that RU 486 was given only on days 90 and 180; and (5) 180 days of continuous estrogen-progestin daily therapy, but without any antiprogestin treatment. Daily monitoring to detect vaginal blood, as in Part I above, was discontinued at 187 days. Femoral blood was collected once weekly throughout in order to identify potential breakthrough ovulation via progesterone elevations; serum values above 1.0 ng/ml were considered indicative of ovarian luteal function and possible ovulation. Likewise, these same specimens were analyzed for estradiol levels in order to monitor ongoing endogenous estrogen biosynthesis. […]
Data derived from Part II of the study was listed by treatment group with the profiles of endometrial bleeding through six treatment cycles to 180 days. Mean (+SEM) number of days for breakthrough bleeding or menses was calculated by dividing the total number of incidents recorded (per treatment cycle in the case of group 1 or 30 days intervals for groups 2 to 5) by the number of individuals observed in the group. In the tabulation of data, menses (withdrawal or induced bleeding at expected intervals) was scored for vaginal blood detected within the “pill free” interval for group 1 or within seven days after the intermittent administration of RU 486 during continuous ultra low dose oral contraception (groups 2 to 4). Similarly, failure to observe vaginal bleeding during these times of expected menses, either withdrawal of the oral contraceptive medication or soon after giving the progesterone antagonist, was scored as withdrawal amenorrhea.

Data set [3] concerns ovariectomized cynomolgus monkeys. As to the kind of experiment: Example II: vaginal bleeding in ovariectomized monkeys on estradiol and estradiol plus progesterone replacement, intermittent onapristone. The data set is classed as in vivo, Macaca fascicularis. As to the method:
(§1) Twenty previously ovariectomized cynomolgus monkeys (Macaca fascicularis) have implanted for 281 days a single estradiol-containing subcutaneous capsule. Estradiol release from this capsule results in serum estradiol concentrations of approximately 75 pg/ml. A subcutaneous progesterone capsule is implanted on day 191 and remains in place until day 281. Progesterone release from this capsule results in serum progesterone concentrations of approximately 4 ng/ml. The study takes place in the animal research facilities of the Eastern Virginia Medical School as described in Example I.
The purpose of this study was to evaluate break-through bleeding prior to and after onapristone treatment in ovariectomized monkeys receiving estrogen and estrogen plus progesterone replacement therapy. The twenty monkeys were assigned to the following four groups: Group I receives onapristone vehicle (saline) on days 30, 60, 90, 120, 150, 180, 210, 240, 270. Group 2 receives 3 mg/kg i.m. onapristone on days 30, 60, 90, 120, 150, 180, 210, 240, 270. Group 3 is treated with 10 mg/kg i.m. onapristone on the same days. Group 4 receives 30 mg/kg i.m. onapristone on the same days. Vaginal swabs are performed daily from day 1 to 281. The primary parameter for evaluation in this study is the occurrence of vaginal bleeding.

Data set [4] shares this test system. Nature of the data set: Example III: vaginal bleeding in ovariectomized monkeys on estradiol and low-dose progesterone implants, onapristone 40 mg/kg im. The data set is classed as in vivo. Conditions: for incidence of breakthrough bleeding: 40 mg/kg im, estradiol and low-dose progesterone replacement. As to the method: (§2) Twenty ovariectomized cynomolgus monkeys were implanted subcutaneously with an estradiol-containing silastic capsule (3 cm length).
The study was undertaken in two phases.
(§3) All monkeys have reached at least day 272. The estradiol implant will remain in place to day 301. […] A smaller progesterone implant (0.5 cm) will be in place from day 210 to 294. This implant is intended to produce a serum progesterone concentration of approximately 0.7 ng/ml. The two experimental groups (M=10/group) were as follows: • Group 1 Onapristone vehicle (saline) on days 180, 197, 240, and 270 • Group 2 Onapristone […] (40 mg/kg, im) on days 180, 197, 240, and 270

A short description of data set [5]: Example II: serum hormone concentrations from subcutaneous capsules. The data set is classed as in vivo, Macaca fascicularis. On the procedure:
as §1

Details of data set [6]: species or system cynomolgus monkeys. As to conditions: female, cynomolgus monkey, in vivo, sc. As to the method:
as §2, §3

As for `CC#C[C@]1(O)CC[C@H]2[C@@H]3CCC4=CC(=O)CCC4=C3[C@@H](c3ccc(N(C)C)cc3)C[C@@]21C` [RU 486], the serum estradiol levels in data set [1] is roughly 25 pg/mL. Also, the “duration of menses after RU 486” value in data set [2] (RU 486 50 mg intermittently during continuous ultra low dose oral contraception, P<0.05 versus interrupted pill cycle alone) amounted to 3.1 ± 0.8 days. The “time to induced bleeding after RU 486, all instances” value in data set [2] (administered at 30, 60 or 90 day intervals) was no more than 72 h. Moreover, the “reduction of overall breakthrough bleeding incidence” value in data set [2] (single 50 mg oral RU 486 doses at 30, 60 or 90 day intervals during continuous ultra low dose oral contraception, groups 2 to 4 combined versus group 1, P<0.05) is given as 57%.

For the compound `CN(C)c1ccc([C@H]2C[C@]3(C)[C@@H](CC[C@]3(O)CCCO)[C@@H]3CCC4=CC(=O)CCC4=C32)cc1` [Onapristone], the “incidence of breakthrough bleeding” value in data set [3] (Groups 2-4: 3, 10, 30 mg/kg i.m. every 30 days, estradiol capsule) is recorded as “lowers the incidence of breakthrough bleeding”. Further, in data set [3] (Groups 2-4: 3, 10, 30 mg/kg i.m. every 30 days, estradiol capsule only), the “induction of bleeding by onapristone during estradiol treatment” value was “does not induce bleeding”. In data set [3] (after progesterone capsule implanted (day 191)), the “induction of vaginal bleeding during combined estradiol and progestin treatment” value is listed as “induces vaginal bleeding”. Further, the “incidence of breakthrough bleeding” value in data set [4] was “reduced the incidence of BTBs”. For the same compound, the “incidence of breakthrough bleeding” value in data set [4] (listed as onapristone) is given as “reduced the incidence of breakthrough bleeding”. For the same compound, in data set [4] (Group 2, 40 mg/kg), the “days of bleeding that followed the day 197 onapristone treatment” value is listed as “Twelve of the twenty days”, the “monkeys in which bleeding followed the day 197 treatment” value is given as “four of the ten monkeys” and the “monkeys in which bleeding occurred” value is on record as “seven of the ten monkeys”. Besides, in data set [4] (Group 2, 40 mg/kg im, controls 33 days), the “days of unscheduled vaginal bleeding (breakthrough bleeding)” value amounted to 2 days. The “days of bleeding that followed the day 240 onapristone treatment” value in data set [4] (Group 2, 40 mg/kg, in one monkey) was “Six of the twenty days”. Moreover, in data set [4] (Group 2, 40 mg/kg, out of 800 days of observation), the “days of vaginal bleeding” value is on record as 20 days. Besides, in data set [4] (monkeys substituted with E2 and low-dose progesterone), the withdrawal-bleeding entry is “induced withdrawal-bleeding”.

As for `CC(=O)[C@H]1CC[C@H]2[C@@H]3CCC4=CC(=O)CC[C@]4(C)[C@H]3CC[C@]12C` [progesterone], the “BTBs after addition of low-dose progesterone” value in data set [4] (on estradiol implant) is recorded as “increase in BTBs”. Further, the serum progesterone concentrations entry in data set [5] (subcutaneous progesterone capsule, day 191 to 281) is on record as “approximately 4 ng/ml”.

On to `C[C@]12CC[C@@H]3c4ccc(O)cc4CC[C@H]3[C@@H]1CC[C@@H]2O` [estradiol], for which the serum estradiol concentrations entry in data set [6] and in data set [5] (single estradiol-containing subcutaneous capsule) was “approximately 75 pg/ml” each time. Besides, the “rate of breakthrough bleeding with progressing duration of estradiol treatment” value in data set [3] (Group 1, estradiol capsule, onapristone vehicle) is listed as “increasing rate of breakthrough bleeding”. Besides, the “breakthrough bleedings (BTBs) with E2 alone” value in data set [4] (ovariectomized monkeys substituted with E2 alone) is given as “do not exhibit breakthrough bleedings”.
